# Reference: patent publication US10112935B2, “Indazolyl thiadiazolamines and related compounds for inhibition of Rho-associated protein kinase and the treatment of disease” (Lycera Corporation, priority 2015, dated 2018)
# Experiments:
# [1] = target: GST-tagged human ROCK2 catalytic domain 1-553 (Homo sapiens (Human), UniProt O75116); experiment: Inhibition of Rho-associated protein kinase isoform 2 (LANCE Ultra ULight-CREBtide FRET kinase assay); type: biochemical; settings: for IC50: 30 μM was the highest concentration analyzed; for Selectivity for ROCK2 over ROCK1 (IC50 ROCK1 / IC50 ROCK2): selectivity ROCK2 vs ROCK1
# Procedure: (§1) Exemplary compounds were tested for ability to inhibit Rho-associated protein kinase isoform 1 (ROCK1) and Rho-associated protein kinase isoform 2 (ROCK2). Assay procedures and results are described below.
# (§2) Protein constructs were purified from a baculovirus expression system. The peptide substrate was fluorescent LANCE® Ultra ULight-CREBtide: […] (PerkinElmer, # TRF0107-D). […] After a 90 minute incubation at room temperature on a shaker table, the kinase reaction was stopped by addition of 10 mM EDTA, and phosphorylation of the substrate was detected by adding 1 nM LANCE® Ultra Europium-anti-phospho-CREB (ser133) antibody (PerkinElmer, # TRF0200-D) and incubating for 60 minutes on a shaker at room temperature. The flurorescence resonance energy transfer (FRET) signals were read and analyzed on an Envision™ 2103 Multilabel Reader (Perkin Elmer).
# [2] = target: GST-tagged human ROCK1 catalytic domain 1-477 (Homo sapiens (Human), UniProt Q13464); experiment: Inhibition of Rho-associated protein kinase isoform 1 (LANCE Ultra ULight-CREBtide FRET kinase assay); type: biochemical; settings: 30 μM was the highest concentration analyzed
# Procedure: as §1, §2
# Chain of GST-tagged human ROCK1 catalytic domain 1-477 (Q13464 1-477): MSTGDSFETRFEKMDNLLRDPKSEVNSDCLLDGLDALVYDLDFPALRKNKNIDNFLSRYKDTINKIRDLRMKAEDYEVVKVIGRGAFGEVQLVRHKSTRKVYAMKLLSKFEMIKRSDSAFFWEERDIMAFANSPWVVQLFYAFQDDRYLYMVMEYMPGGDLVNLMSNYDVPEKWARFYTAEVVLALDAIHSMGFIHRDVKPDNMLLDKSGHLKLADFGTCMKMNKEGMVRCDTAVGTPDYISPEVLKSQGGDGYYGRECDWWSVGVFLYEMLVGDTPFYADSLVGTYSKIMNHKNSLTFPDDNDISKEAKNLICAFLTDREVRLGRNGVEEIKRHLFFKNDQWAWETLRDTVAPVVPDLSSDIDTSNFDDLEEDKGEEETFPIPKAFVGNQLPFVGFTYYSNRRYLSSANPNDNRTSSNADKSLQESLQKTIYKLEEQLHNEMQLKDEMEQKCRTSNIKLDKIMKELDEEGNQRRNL
# Chain of GST-tagged human ROCK2 catalytic domain 1-553 (O75116 1-553): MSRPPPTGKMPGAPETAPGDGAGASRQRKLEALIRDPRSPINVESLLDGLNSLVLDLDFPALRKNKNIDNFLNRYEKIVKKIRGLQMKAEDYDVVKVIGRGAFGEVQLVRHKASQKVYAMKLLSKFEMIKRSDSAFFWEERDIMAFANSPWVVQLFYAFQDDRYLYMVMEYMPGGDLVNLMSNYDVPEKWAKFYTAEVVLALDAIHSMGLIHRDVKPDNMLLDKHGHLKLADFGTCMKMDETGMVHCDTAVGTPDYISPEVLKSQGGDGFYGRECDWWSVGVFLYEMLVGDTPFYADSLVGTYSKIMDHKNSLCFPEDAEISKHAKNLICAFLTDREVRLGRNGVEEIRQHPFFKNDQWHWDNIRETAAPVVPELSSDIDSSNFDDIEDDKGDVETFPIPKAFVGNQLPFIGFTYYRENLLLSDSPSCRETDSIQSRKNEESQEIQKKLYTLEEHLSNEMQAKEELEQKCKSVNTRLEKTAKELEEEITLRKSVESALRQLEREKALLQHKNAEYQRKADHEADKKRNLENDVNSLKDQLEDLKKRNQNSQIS
SMILES,IC50 [1],Selectivity for ROCK2 over ROCK1 (IC50 ROCK1 / IC50 ROCK2) [1],IC50 [2]
CC(=O)c1cc(-c2nnc(Nc3ccc4[nH]ncc4c3Cl)s2)ccn1 [Example 35CV],< 1 µM,>50,1 to 15 µM
CC(C(=O)Nc1cccc(-c2nnc(Nc3ccc4[nH]ncc4c3Cl)s2)c1)c1ccc(F)cc1 (stereo not drawn) [Example 35E],< 1 µM,>50,1 to 15 µM
CCCOC(=O)Nc1cc(-c2nnc(Nc3ccc4[nH]ncc4c3Cl)s2)ccn1.O=C(O)C(F)(F)F [Example 35F],< 1 µM,>100,> 30 µM
O=C(Cc1ccc(F)cc1)Nc1cc(-c2nnc(Nc3ccc4[nH]ncc4c3Cl)s2)ccn1 [Example 35G],< 1 µM,>5,< 1 µM
CC1CCCCC1C(=O)Nc1cccc(-c2nnc(Nc3ccc4[nH]ncc4c3Cl)s2)c1 (stereo not drawn) [Example 35H],< 1 µM,>5,1 to 15 µM
CC(=O)Nc1cccc(-c2nnc(Nc3ccc4[nH]ncc4c3C(C)C)s2)c1 [Example 35I],1 to 15 µM,>5,> 30 µM
CC(=O)Nc1cccc(-c2nnc(Nc3ccc4[nH]ncc4c3C)s2)c1 [Example 35J],< 1 µM,>5,1 to 15 µM
C=Cc1c(Nc2nnc(-c3cccc(NC(C)=O)c3)s2)ccc2[nH]ncc12.O=C(O)C(F)(F)F [Example 35K],< 1 µM,>5,1 to 15 µM
CC(C)(C)CC(=O)Nc1cccc(-c2nnc(Nc3ccc4[nH]ncc4c3Cl)s2)c1 [Example 35M],< 1 µM,>5,1 to 15 µM
CC(C)(C)C(=O)Nc1cccc(-c2nnc(Nc3ccc4[nH]ncc4c3Cl)s2)c1 [Example 35O],< 1 µM,>5,< 1 µM
O=C(Nc1cccc(-c2nnc(Nc3ccc4[nH]ncc4c3Cl)s2)c1)N1CCNCC1 [Example 35T],< 1 µM,>5,< 1 µM
CC(C)C(=O)Nc1cccc(-c2nnc(Nc3ccc4[nH]ncc4c3Cl)s2)c1 [Example 35V],< 1 µM,>5,< 1 µM
CC(=O)Nc1cccc(-c2nnc(Nc3ccc4[nH]ncc4c3Cl)s2)c1 [Example 35Y],< 1 µM,>5,< 1 µM
N#Cc1cccc(-c2nnc(Nc3ccc4[nH]ncc4c3Cl)s2)c1 [Example 35Z],< 1 µM,>100,> 30 µM
"Cn1cc(CC(=O)Nc2cc(-c3nnc(Nc4ccc5[nH]ncc5c4Cl)s3)ccn2)cn1 [Example 36, N-(4-(5-((4-Chloro-1H-indazol-5-yl)amino)-1,3,4-thiadiazol-2-yl)pyridin-2-yl)-2-(1-methyl-1H-pyrazol-4-yl)acetamide]",< 1 µM,>5,< 1 µM
"Clc1c(Nc2nnc(-c3cccc(-c4nccn4C4COC4)c3)s2)ccc2[nH]ncc12 [Example 37, N-(4-Chloro-1H-indazol-5-yl)-5-(3-(1-(oxetan-3-yl)-1H-imidazol-2-yl)phenyl)-1,3,4-thiadiazol-2-amine]",< 1 µM,>100,> 30 µM
"CN1CCN(c2cc(-c3nnc(Nc4ccc5[nH]ncc5c4Cl)s3)ccn2)C1=O [Example 38, 1-(4-(5-((4-Chloro-1H-indazol-5-yl)amino)-1,3,4-thiadiazol-2-yl)pyridin-2-yl)-3-methylimidazolidin-2-one]",< 1 µM,>5,< 1 µM
c1csc(-c2cncc(-c3nnc(Nc4ccc5[nH]ncc5c4)s3)c2)c1 [Example 39D],< 1 µM,>5,1 to 15 µM
"Cc1coc(-c2cc(-c3nnc(Nc4ccc5[nH]ncc5c4Cl)s3)ccn2)n1 [Example 40, N-(4-Chloro-1H-indazol-5-yl)-5-(2-(4-methyloxazol-2-yl)pyridin-4-yl)-1,3,4-thiadiazol-2-amine]",< 1 µM,>5,< 1 µM
O=C(O)C(F)(F)F.OCc1cc(-c2ncco2)cc(-c2nnc(Nc3ccc4[nH]ncc4c3Cl)s2)c1 [Example 41C],< 1 µM,>5,< 1 µM
Clc1c(Nc2nnc(-c3cccc(-c4nnn[nH]4)c3)s2)ccc2[nH]ncc12 [Example 41D],< 1 µM,>50,< 1 µM
"CN1CCN(c2cccc(-c3nnc(Nc4ccc5[nH]ncc5c4Cl)s3)c2)C(=O)C1 [Example 42, 1-(3-(5-((4-Chloro-1H-indazol-5-yl)amino)-1,3,4-thiadiazol-2-yl)phenyl)-4-methylpiperazin-2-one]",1 to 15 µM,>5,1 to 15 µM
